Assay results as given in ChEMBL document CHEMBL4622867, “An efficient synthetic approach toward a sporadic heterocyclic scaffold: 1,3-Oxathiol-2-ylidenes; alkaline phosphatase inhibition and molecular docking studies” (Bioorg Med Chem Lett, 2020).

Tested on: HeLa
Assay: Antiproliferative activity against human HeLa cells assessed as inhibition of cell growth by MTT assay relative to control
Assay type: functional
Conditions: not given
With CCOC(=O)c1s/c(=N\C(=O)c2ccccc2)oc1C the “growth inhibition (GI)” value was 69.03%. For CCOC(=O)c1s/c(=N\C(=O)c2ccccc2C)oc1C, the “growth inhibition (GI)” value was 9.8%. With CCOC(=O)c1s/c(=N\C(=O)c2cccc(Cl)c2)oc1C the “growth inhibition (GI)” value was 8.07%. In the case of CCOC(=O)c1s/c(=N\C(=O)Cc2ccccc2)oc1C, the “growth inhibition (GI)” value is reported as 4.15%. For CCOC(=O)c1s/c(=N\C(=O)c2ccco2)oc1C, the “growth inhibition (GI)” value was 42.11%. For CCOC(=O)c1s/c(=N\C(=O)c2ccccc2[N+](=O)[O-])oc1C, the “growth inhibition (GI)” value was 2.42%. For CCOC(=O)c1s/c(=N\C(=O)c2cccc(Br)c2)oc1C, the “growth inhibition (GI)” value was 4.61%. With CCOC(=O)c1s/c(=N\C(=O)c2ccc([N+](=O)[O-])cc2)oc1C the “growth inhibition (GI)” value was 21.53%. For CCOC(=O)c1s/c(=N\C(=O)c2ccccc2Cl)oc1C, the “growth inhibition (GI)” value was 51.53%. For CCOC(=O)c1s/c(=N\C(=O)c2cccc(C)c2)oc1C, the “growth inhibition (GI)” value was 33.07%. In the case of CCOC(=O)c1s/c(=N\C(=O)c2cc(OC)c(OC)c(OC)c2)oc1C, the “growth inhibition (GI)” value is reported as 58.07%. For CCOC(=O)c1s/c(=N\C(=O)CCCc2ccccc2)oc1C, the “growth inhibition (GI)” value was 3.96%.

Molecular target: not listed separately
Assay: Inhibition of calf intestinal alkaline phosphatase
Design: species or system Bos taurus
Conditions: not given
N[C@@H](Cc1ccccc1)C(=O)O [PHENYLALANINE] showed an IC50 of 80.2 µM. In the case of CCOC(=O)c1s/c(=N\C(=O)c2cccc(Cl)c2)oc1C, the IC50 is reported as 2.9 µM. In the case of CCOC(=O)c1s/c(=N\C(=O)c2cccc(Br)c2)oc1C, the IC50 is reported as 1.16 µM. In the case of CCOC(=O)c1s/c(=N\C(=O)CCCc2ccccc2)oc1C, the IC50 is reported as 0.67 µM.

Tested on: not listed separately
Assay: Inhibition of bovine kidney TNAP
Design: species or system Bos taurus
Conditions: not given
In the case of CCOC(=O)c1s/c(=N\C(=O)c2cccc(Br)c2)oc1C, the IC50 is reported as 6.51 µM. For CCOC(=O)c1s/c(=N\C(=O)c2ccc([N+](=O)[O-])cc2)oc1C, the IC50 was 0.37 µM. CCOC(=O)c1s/c(=N\C(=O)c2ccccc2Cl)oc1C gave an IC50 of 30.4 µM. Compound CCOC(=O)c1s/c(=N\C(=O)CCCc2ccccc2)oc1C has an IC50 of 2.41 µM. c1ccc([C@H]2CN3CCSC3=N2)cc1 [LEVAMISOLE] gave an IC50 of 19.2 µM.

Organism: Bos taurus
Assay: Inhibition of bovine kidney TNAP relative to control
Design: concentration or dose not given beside the values
Conditions: concentration not given here
CCOC(=O)c1s/c(=N\C(=O)c2ccccc2)oc1C gave an inhibition of 39.1%. In the case of CCOC(=O)c1s/c(=N\C(=O)c2ccccc2C)oc1C, the inhibition is reported as 28.8%. CCOC(=O)c1s/c(=N\C(=O)c2cccc(Cl)c2)oc1C showed an inhibition of 45.3%. For CCOC(=O)c1s/c(=N\C(=O)Cc2ccccc2)oc1C, the inhibition was 41.4%. For CCOC(=O)c1s/c(=N\C(=O)c2ccco2)oc1C, the inhibition was 45.7%. Compound CCOC(=O)c1s/c(=N\C(=O)c2ccccc2[N+](=O)[O-])oc1C has an inhibition of 44.5%. CCOC(=O)c1s/c(=N\C(=O)c2ccc(Cl)cc2)oc1C gave an inhibition of 48.3%. For CCOC(=O)c1s/c(=N\C(=O)c2cccc(C)c2)oc1C, the inhibition was 30.9%. Work on CCOC(=O)c1s/c(=N\C(=O)c2cc(OC)c(OC)c(OC)c2)oc1C yielded an inhibition of 47.1%.

Organism: Bos taurus
Assay: Inhibition of calf intestinal alkaline phosphatase relative to control
Design: concentration or dose not given beside the values
Conditions: concentration not given here
In the case of CCOC(=O)c1s/c(=N\C(=O)c2ccccc2)oc1C, the inhibition is reported as 30.4%. CCOC(=O)c1s/c(=N\C(=O)c2ccccc2C)oc1C showed an inhibition of 19.5%. Compound CCOC(=O)c1s/c(=N\C(=O)Cc2ccccc2)oc1C has an inhibition of 25.3%. CCOC(=O)c1s/c(=N\C(=O)c2ccco2)oc1C showed an inhibition of 33.1%. In the case of CCOC(=O)c1s/c(=N\C(=O)c2ccccc2[N+](=O)[O-])oc1C, the inhibition is reported as 35.4%. Work on CCOC(=O)c1s/c(=N\C(=O)c2ccc(Cl)cc2)oc1C yielded an inhibition of 27.9%. CCOC(=O)c1s/c(=N\C(=O)c2ccc([N+](=O)[O-])cc2)oc1C showed an inhibition of 40.4%. With CCOC(=O)c1s/c(=N\C(=O)c2ccccc2Cl)oc1C the inhibition was 45.3%. Work on CCOC(=O)c1s/c(=N\C(=O)c2cccc(C)c2)oc1C yielded an inhibition of 28.9%. Work on CCOC(=O)c1s/c(=N\C(=O)c2cc(OC)c(OC)c(OC)c2)oc1C yielded an inhibition of 36.5%.
